The source made the active and inactive calls. The rule behind the calls is not given here.
Columns and labels:
[1] = Cytotoxic activity against human SKOV3 cells assessed as inhibition of cell growth after 48 hrs by MTT assay; type: functional, cell-based; details: SK-OV-3, 48 h
[2] = Cytotoxic activity against human Bel7404 cells assessed as inhibition of cell growth after 48 hrs by MTT assay; type: functional, cell-based; details: BEL-7404, 48 h
A549 = test: Cytotoxic activity against human A549 cells assessed as inhibition of cell growth after 48 hrs by MTT assay; type: functional, cell-based; details: A549, 48 h
[3] = Cytotoxic activity against human HCT116 cells assessed as inhibition of cell growth after 48 hrs by MTT assay; type: functional, cell-based; details: HCT-116, 48 h
NCI-H460 = test: Cytotoxic activity against human NCI-H460 cells assessed as inhibition of cell growth after 48 hrs by MTT assay; type: functional, cell-based; details: NCI-H460, 48 h
[4] = target: Cyclin-dependent kinase 2/cyclin E1 (Homo sapiens, UniProt P24941); test: Inhibition of human recombinant C-terminal His6-tagged full length human Cdk2/human recombinant N-terminal GST-tagged full-length Cyclin E using histone H1 substrate after 40 mins by radiometric filter binding assay; type: protein-complex assay
SK-OV-3 [5] = test: Induction of apoptosis in human SKOV3 cells assessed as increase in chromatin condensation at 5 uM after 24 hrs by Hoechst 33258 staining based fluorescence microscopic analysis; type: functional, cell-based
SK-OV-3 [6] = test: Induction of apoptosis in human SKOV3 assessed as loss of membrane integrity at 5 uM after 12 to 24 hrs by AO/EB staining based fluorescence microscopic analysis; type: functional
SK-OV-3 [7] = test: Induction of ROS generation in human SKOV3 cells at 5 uM after 12 hrs by DCF-DA dye based flow cytometry (reference value: 12.9%); type: functional
SK-OV-3 [8] = test: Induction of ROS generation in human SKOV3 cells at 5 uM after 24 hrs by DCF-DA dye based flow cytometry (reference value: 12.9%); type: functional
SK-OV-3 [9] = test: Induction of apoptosis in human SKOV3 cells assessed as depolarization of mitochondria at 5 uM after 12 to 24 hrs by JC-1 dye based fluorescence microscopic analysis; type: functional
SK-OV-3 [10] = test: Induction of apoptosis in human SKOV3 cells assessed as increase in cytochrome c level in cytosol at 5 uM after 12 to 24 hrs by Western blot analysis; type: functional, cell-based
SK-OV-3 [11] = test: Induction of apoptosis in human SKOV3 cells assessed as caspase-9 cleavage at 5 uM after 12 to 24 hrs by Western blot analysis; type: functional, cell-based
SK-OV-3 [12] = test: Induction of apoptosis in human SKOV3 cells assessed as caspase-3 cleavage at 5 uM after 12 to 24 hrs by Western blot analysis; type: functional, cell-based
SK-OV-3 [13] = test: Induction of apoptosis in human SKOV3 cells assessed as caspase-3 activity by Ac-DEVD-pNA based spectrophotometric analysis; type: functional, cell-based; details: TDE = time-dependent effect
SK-OV-3 [14] = test: Induction of apoptosis in human SKOV3 cells assessed as caspase-9 activity by Ac-LEHD-pNA based spectrophotometric analysis; type: functional, cell-based; details: TDE = time-dependent effect
SK-OV-3 [15] = test: Induction of apoptosis in human SKOV3 cells after 12 hrs by Annexin V-FITC/PI staining based flow cytometry; type: functional, cell-based
SK-OV-3 [16] = test: Induction of apoptosis in human SKOV3 cells assessed as late apoptotic cells at 3 uM after 12 hrs by Annexin V-FITC/PI staining based flow cytometry (reference value: 1.5%); type: functional
SK-OV-3 [17] = test: Induction of apoptosis in human SKOV3 cells assessed as late apoptotic cells at 5 uM after 12 hrs by Annexin V-FITC/PI staining based flow cytometry (reference value: 1.5%); type: functional
SK-OV-3 [18] = test: Induction of apoptosis in human SKOV3 cells assessed as early apoptotic cells at 3 uM after 12 hrs by Annexin V-FITC/PI staining based flow cytometry (reference value: 2.8%); type: functional
SK-OV-3 [19] = test: Induction of apoptosis in human SKOV3 cells assessed as early apoptotic cells at 5 uM after 12 hrs by Annexin V-FITC/PI staining based flow cytometry (reference value: 2.8%); type: functional
SK-OV-3 [20] = test: Induction of ROS generation in human SKOV3 cells at 5 uM after 12 hrs by DCF-DA dye based flow cytometry relative to control; type: functional
[21] = Upregulation of Bax protein expression in human SKOV3 cells at 5 uM after 12 to 24 hrs by Western blot analysis; type: functional, cell-based; details: SK-OV-3
[22] = Downregulation of Bcl-2 protein expression in human SKOV3 cells after 12 to 24 hrs by Western blot analysis; type: functional, cell-based; details: SK-OV-3
SK-OV-3 [23] = test: Induction of Fas protein expression in human SKOV3 cells after 12 to 24 hrs by Western blot analysis; type: functional, cell-based
SK-OV-3 [24] = test: Induction of apoptosis in human SKOV3 cells assessed as reduction in caspase-8 level in cytoplasm at 5 uM after 12 to 24 hrs by Western blot analysis; type: functional, cell-based
[25] = Cell cycle arrest in human SKOV3 cells assessed as accumulation at G1 phase at 3 uM after 24 hrs by propidium iodide staining based flow cytometry (reference value: 53.38%); type: functional; details: SK-OV-3
[26] = Cell cycle arrest in human SKOV3 cells assessed as accumulation at G2 phase at 3 uM after 24 hrs by propidium iodide staining based flow cytometry (reference value: 8.85%); type: functional; details: SK-OV-3
[27] = Cell cycle arrest in human SKOV3 cells assessed as accumulation at S phase at 3 uM after 24 hrs by propidium iodide staining based flow cytometry (reference value: 37.77%); type: functional; details: SK-OV-3
[28] = Cell cycle arrest in human SKOV3 cells assessed as accumulation at G1 phase at 5 uM after 24 hrs by propidium iodide staining based flow cytometry (reference value: 53.38%); type: functional; details: SK-OV-3
[29] = Cell cycle arrest in human SKOV3 cells assessed as accumulation at G2 phase at 5 uM after 24 hrs by propidium iodide staining based flow cytometry (reference value: 8.85%); type: functional; details: SK-OV-3
[30] = Cell cycle arrest in human SKOV3 cells assessed as accumulation at S phase at 5 uM after 24 hrs by propidium iodide staining based flow cytometry (reference value: 37.77%); type: functional; details: SK-OV-3

CCOP(=O)(OCC)C(CNc1ccc(NC(=S)NC(=O)[C@]2(C)CCC[C@]3(C)c4ccc(C(C)C)cc4CC[C@@H]23)cc1)P(=O)(OCC)OCC
IC50 [1]: 16.6 µM
IC50 [2]: 12.1 µM
IC50 (A549): 15.9 µM
IC50 [3]: 12.2 µM
IC50 (NCI-H460): 13 µM
IC50 [4]: 17.8 µM

O=c1[nH]cc(F)c(=O)[nH]1 [FLUOROURACIL]
IC50 [1]: 22.4 µM
IC50 [2]: 30.2 µM
IC50 [3]: 24.6 µM
IC50 (NCI-H460): 35.5 µM

CCOP(=O)(OCC)C(CNc1cc(Cl)c(NC(=S)NC(=O)[C@]2(C)CCC[C@]3(C)c4ccc(C(C)C)cc4CC[C@@H]23)cc1Cl)P(=O)(OCC)OCC
IC50 [1]: 22.1 µM
IC50 [2]: 24.6 µM
IC50 (A549): 16.4 µM
IC50 [3]: 20.2 µM
IC50 (NCI-H460): 24 µM
IC50 [4]: > 50 µM

CCOP(=O)(OCC)C(CNc1cccc(NC(=S)NC(=O)[C@]2(C)CCC[C@]3(C)c4ccc(C(C)C)cc4CC[C@@H]23)c1)P(=O)(OCC)OCC
IC50 [1]: 16.5 µM
IC50 [2]: 10.3 µM
IC50 (A549): 15.4 µM
IC50 [3]: 11.3 µM
IC50 (NCI-H460): 13.7 µM
IC50 [4]: > 50 µM

CCOP(=O)(OCC)C(CNc1ccc(Cc2ccc(NC(=S)NC(=O)[C@]3(C)CCC[C@]4(C)c5ccc(C(C)C)cc5CC[C@@H]34)cc2)cc1)P(=O)(OCC)OCC
IC50 [1]: 28.9 µM
IC50 [2]: 35.9 µM
IC50 (A549): 33.6 µM
IC50 [3]: 25.5 µM
IC50 (NCI-H460): 37.6 µM
IC50 [4]: 29.5 µM

CCOP(=O)(OCC)C(CNc1ccc(F)cc1NC(=S)NC(=O)[C@]1(C)CCC[C@]2(C)c3ccc(C(C)C)cc3CC[C@@H]12)P(=O)(OCC)OCC
Activity (SK-OV-3 [5]): Dose-dependent effect
Activity (SK-OV-3 [6]): Active
Activity (SK-OV-3 [7]): 33.6%
Activity (SK-OV-3 [8]): 49.3%
Activity (SK-OV-3 [9]): Active
Activity (SK-OV-3 [10]): Active
Activity (SK-OV-3 [11]): Active
Activity (SK-OV-3 [12]): Active
Activity (SK-OV-3 [13]): tde
Activity (SK-OV-3 [14]): tde
IC50 [1]: 1.79 µM
IC50 [2]: 7.1 µM
IC50 (A549): 6.93 µM
IC50 [3]: 6.01 µM
IC50 (NCI-H460): 8.17 µM
Activity (SK-OV-3 [15]): Dose-dependent effect
Activity (SK-OV-3 [16]): 14.4%
Activity (SK-OV-3 [17]): 5.7%
Activity (SK-OV-3 [18]): 14.5%
Activity (SK-OV-3 [19]): 24.7%
fold change (FC) (SK-OV-3 [20]): 2
Activity [21]: Dose-dependent effect
Activity [22]: Dose-dependent effect
Activity (SK-OV-3 [23]): Dose-dependent effect
Activity (SK-OV-3 [24]): Active
Activity [25]: 59.8%
Activity [26]: 13.4%
Activity [27]: 26.9%
Activity [28]: 68.1%
Activity [29]: 10.5%
Activity [30]: 21.4%
IC50 [4]: 0.13 µM

CCOP(=O)(OCC)C(CNc1ccc(S(=O)(=O)c2ccc(NC(=S)NC(=O)[C@]3(C)CCC[C@]4(C)c5ccc(C(C)C)cc5CC[C@@H]34)cc2)cc1)P(=O)(OCC)OCC
IC50 [1]: 53.9 µM
IC50 [2]: 32.2 µM
IC50 (A549): 41.9 µM
IC50 [3]: 56 µM
IC50 (NCI-H460): 32.7 µM
IC50 [4]: 0.65 µM

CCOP(=O)(OCC)C(CNc1ccccc1NC(=S)NC(=O)[C@]1(C)CCC[C@]2(C)c3ccc(C(C)C)cc3CC[C@@H]12)P(=O)(OCC)OCC
IC50 [1]: 16.5 µM
IC50 [2]: 12.5 µM
IC50 (A549): 15 µM
IC50 [3]: 11.4 µM
IC50 (NCI-H460): 13.9 µM
IC50 [4]: 15.3 µM

CCOP(=O)(OCC)C(CNc1ccc(Oc2ccc(NC(=S)NC(=O)[C@]3(C)CCC[C@]4(C)c5ccc(C(C)C)cc5CC[C@@H]34)cc2)cc1)P(=O)(OCC)OCC
IC50 [1]: 58.9 µM
IC50 [2]: 31.3 µM
IC50 (A549): 20 µM
IC50 [3]: 44.6 µM
IC50 (NCI-H460): 38.2 µM
IC50 [4]: 40.9 µM

CCOP(=O)(OCC)C(CNc1cccc(NC(=S)NC(=O)[C@]2(C)CCC[C@]3(C)c4ccc(C(C)C)cc4CC[C@@H]23)c1C)P(=O)(OCC)OCC
IC50 [1]: 17.3 µM
IC50 [2]: 11.9 µM
IC50 (A549): 15.7 µM
IC50 [3]: 11.9 µM
IC50 (NCI-H460): 14.2 µM
IC50 [4]: 5.98 µM

CCOP(=O)(OCC)C(CNc1ccc(Sc2ccc(NC(=S)NC(=O)[C@]3(C)CCC[C@]4(C)c5ccc(C(C)C)cc5CC[C@@H]34)cc2)cc1)P(=O)(OCC)OCC
IC50 [1]: 40.9 µM
IC50 [2]: 39.2 µM
IC50 (A549): 38.8 µM
IC50 [3]: 34.1 µM
IC50 (NCI-H460): 40.9 µM
IC50 [4]: 1.01 µM

CCOP(=O)(OCC)C(CNc1cc(C)c(C)cc1NC(=S)NC(=O)[C@]1(C)CCC[C@]2(C)c3ccc(C(C)C)cc3CC[C@@H]12)P(=O)(OCC)OCC
IC50 [1]: 19.5 µM
IC50 [2]: 12.7 µM
IC50 (A549): 13.8 µM
IC50 [3]: 13.1 µM
IC50 (NCI-H460): 28.3 µM
IC50 [4]: 2.56 µM

CC(C)c1ccc2c(c1)CC[C@H]1[C@](C)(C(=O)O)CCC[C@]21C [DEHYDROABIETIC ACID]
IC50 [1]: 65.1 µM
IC50 [2]: 28.7 µM
IC50 (A549): 55.6 µM
IC50 [3]: 30.2 µM
IC50 (NCI-H460): 75 µM
IC50 [4]: 36.3 µM

From ChEMBL document CHEMBL3758138, “Synthesis and pharmacological evaluation of dehydroabietic acid thiourea derivatives containing bisphosphonate moiety as an inducer of apoptosis” (Eur J Med Chem, 2016)
